How the values were obtained:
PTPN2 = details: read-out: KM for PTPN2; cited from earlier work
[1] = tested on: PTP activity in single A431 cells; assay: Single A431 cell PTP activity; format: cell-based, human; details: single A431 cells pretreated with 1 mM; Q1 = 36%, Q3 = 77%
PTPN1 = details: read-out: IC50, PTPN1 inhibition (previous reports); cited from earlier work

Row | Compound | Km (PTPN2) [µM] | median phosphorylation remaining in 60 s (inhibition of dephosphorylation) [1] [%] | IC50 (PTPN1) [µM]
1 | N[C@@H](Cc1ccc(OP(=O)(O)O)cc1)C(=O)O [phosphotyrosine] | 300 | – | –
2 | sodium pervanadate | – | 53 | 0.4
3 | O=C1C=Cc2ccccc2C1=O [1,2-naphthoquinone] | – | – | 1.6 to 5
